In assay [1] the test system is ICR mice. Briefly: Mouse tail-hanging experiment. The assay is classed as in vivo. The text has this:
Experiment 1: The Influence of Embodiment 3 in the Mouse Tail-Hanging Experiment 1.1 Experimental animals: ICR mice, male, 22.0±2 g of body weight, secondary, were provided by the Experimental Animal Science Department of Capital Medical University, Beijing. 1.2 Experiment pharmaceuticals: The pharmaceutical of Embodiment 3 was provided by Beijing Wonner Biotech. Ltd. Co., and Paroxetine (Paxil) was the product of Zhong Mei Tianjin Smith Kline pharmaceuticals Co. Ltd. 1.4 Dose designs: 1. High dose of Embodiment 3 (5 mg/kg/d); 2. middle dose of Embodiment 3 (2.5 mg/kg/d); and 3. low dose of Embodiment 3 (1.25 mg/kg/d). 1.5.1 Group division and administration of drug: The mice were grouped randomly, with 10 mice per group. 1. High dose of Embodiment 3 (5 mg/kg, per oral (P.O.), administered for 7 days); 2. middle dose of Embodiment 3 (2.5 mg/kg, P.O., administered for 7 days); 3. low dose of Embodiment 3 (1.25 mg/kg, P.O., administered for 7 days); 4. Paroxetine (3 mg/kg, P.O., administered for 7 days); and 5. physiological saline (P.O.). After 1 hour of the last drug administration, the mouse tail-hanging experiment was proceeded. […] The time of non-movement of the mouse for the last 5 minutes was recorded. 1.5.3 Statistic calculation: The experimental data are represented as X±SD , and the experimental result was calculated as analysis of variance (ANOVA) by SPSS 11.5 statistic software.

For assay [2], the system named is ICR mice. Briefly: Mouse swimming by compulsion experiment. In kind it is in vivo. The text has this:
Experiment 2: The Influence of Embodiment 3 in the Mouse Swimming by Compulsion Experiment 2.1 Experimental animals: ICR mice, male, 22.0±2 g body weight, secondary, were provided by the Experimental Animal Science Department of Capital Medical University, Beijing. 2.2 Experiment pharmaceuticals: The pharmaceutical of Embodiment 3 was provided by Beijing Wonner Biotech. Ltd. Co., and Paroxetine (Paxil) was the product of Zhong Mei Tianjin Smith Kline pharmaceuticals Co. Ltd. 2.4 Dose designs: 1. High dose of Embodiment 3 (5 mg/kg/d); 2. middle dose of Embodiment 3 (2.5 mg/kg/d); and 3. low dose of Embodiment 3 (1.25 mg/kg/d). 2.5.1 Group division and administration of drug: The mice were grouped randomly, with 10 mice per group. 1. High dose of Embodiment 3 (5 mg/kg, P.O., administered for 7 days); 2. middle dose of Embodiment 3 (2.5 mg/kg, P.O., administered for 7 days); 3. low dose of Embodiment 3 (1.25 mg/kg, P.O., administered for 7 days); 4. Paroxetine (3 mg/kg, P.O., administered for 7 days); and 5. physiological saline (P.O.). […] The accumulative time of non-movement of the mouse in the water for the last 5 minutes was recorded. 2.5.3 Statistic calculation: The experimental data are represented as X±SD, and the experimental result was calculated as ANOVA by SPSS 11.5 statistic software.

As for `Fc1ccc([C@@H]2CCNC[C@H]2COc2ccc3c(c2)OCO3)cc1` [Paroxetine], the Time of non-movement in the assay on ICR mice [1] (Paroxetine 3 mg/kg P.O. for 7 days, tail hung 6 min, last 5 min recorded, 1 hour after last administration, X±SD) was 67.59 ± 39.09 s. In addition, in the assay on ICR mice [1] (high and middle doses of Embodiment 3, Paroxetine, significant in comparison with the physiological saline control), the “Effect on time of non-movement after the mouse's tail was hung (conclusion)” value is “decreased the time of non-movement”. Also, the “Effect on time of non-movement in the mouse swimming by compulsion test (conclusion)” value in the assay with ICR mice [2] (high dose of Embodiment 3, Paroxetine) is “decreased the time of non-movement”. Besides, the immobility time in the assay on ICR mice [2] (table title: time of non-movement in swimming by compulsion, Paroxetine 3 mg/kg P.O. for 7 days, 25° C. water, last 5 minutes, X±SD) was 83.4 ± 40.7 s.

The values are drawn from patent publication US8889650B2, “Antimelancholic medicine prepared with jujube camp materials” (Beijing Wonner Biotech, Ltd. Co., priority 2007, dated 2014).
